In US8030357B2, “Use of bupropion metabolites for the treatment of inflammatory disorders” (Biocopea Limited, priority 2006, dated 2011):
Entries after “also recorded” stand apart in the source; their conditions may differ.

How the values were obtained:
TNFα = assay: LPS Mouse Assay, serum TNFα; type: in vivo, Balb C ByJ mice; details: mice, i.p. or oral dosing 30 minutes before 1 mg/kg LPS i.p.; serum 2 hours after LPS, ELISA
Protocol: (§1) 7 week old Balb C ByJ mice (24-28 g) were administered, either by i.p. (5 ml/kg) or oral (10 ml/kg) administration, with vehicle or test article. 30 minutes later these animals were challenged with an intraperitoneal injection of 1 mg/kg LPS. 2 hours after LPS challenge blood samples were collected under light isoflurane anaesthesia into normal tubes by retro-orbital puncture. Samples were allowed to clot at room temperature and then spun at 6000 g for 3 min at 4° C. Serum was stored at −20° C. until use. Serum TNFα and IL-10 levels were analysed in duplicate by ELISA technique.

IL-10 = assay: LPS Mouse Assay, serum IL-10; type: in vivo, Balb C ByJ mice; details: mice, i.p. or oral dosing 30 minutes before 1 mg/kg LPS i.p.; serum 2 hours after LPS, ELISA
Protocol: as §1

[1] = system: LPS-induced model of cytokine release; assay: LPS Mouse Assay, overall cytokine modulation; type: in vivo, Balb C ByJ mice; details: LPS-challenged mice, serum TNFα and IL-10
Protocol: as §1

[2] = system: dextran sulphate induced colonic inflammation; assay: DSS Induced Colitis; type: in vivo, BDF1 male mice; details: mice, 3% dextran sulphate
Protocol: 8-10 week old BDF1 male mice (˜30 g) were housed in normal conditions. At the start of the study normal water was exchanged for a 3% dextran sulphate solution to induce colonic inflammation. Concurrently actarit and the positive control budesonide were administered rectally twice a day for 7 days. On day 8 the animal were sacrificed and the large intestine was removed. The lower two thirds were assessed for histological severity (scoring system; 1 mild to 4 severe). Mice were assessed for cumulative rectal bleeding scores, diarrheal scores and cumulative hemoccult measurements.

adjuvant arthritis = assay: Rat Adjuvant Assay; type: in vivo, Male Wistar rats; details: rats, oral once a day from day 11; for paw oedema / paw inflammation: doses 3, 10 and 30 mg/kg
Protocol: Male Wistar rats (180 to 200 g) were inoculated by subplantar injection of Freund's adjuvant (suspension of Mycobacterium butyricum in mineral oil) into the right paw at day 0. Sham inoculations were injected in the same way with 0.9% saline in matched Male Wistar rats. On day 2, animals were weighed. On days 3, 4, 7, 9 and 11, animals were weighed and both their right and left hind paws were measured by plethsymometry by submerging the paw up to the tibiotarsal joint. On day 11, rats with left hind paw volumes increased by 20% were selected for continuance in the study. On the same day, continuance rats were administered test article orally (10 ml/kg in distilled water) and from then on once a day until the completion of the study. Left and right hind paw volumes were measured on days 11, 14, 15, 16, 18 and 21.

SJL mouse EAE model = assay: Experimental Autoimmune Encephalitis; type: in vivo; details: SJL mice, orally 10 mg/kg once a day from the first day
Protocol: Experimental Autoimmune Encephalitis
Acclimatised SJL mice were sensitised by a subcutaneous injection proteolipid protein (PLP) in Freund's complete adjuvant (CFA) acting as an encephalitogenic inoculum. Innoculum was administered subcutaneously at a concentration of 125 μg PLP/300 μg CFA in a volume of 200 μl. 48 hours later, an intraperitoneal injection of pertussis toxin (PTX) was administered at a dose of 20 μg/kg, to increase blood-brain barrier permeability.
Compound (6) was administered from the first day of the experiment and once a day until the end, orally at a dose of 10 mg/kg. Copaxone was administered intraperitoneally at a dose of 25 mg/kg. Throughout the experiment, careful clinical examinations and body weights were taken to observe the well being of the animal.

[3] = system: intraplantar carrageenan induced paw oedema; assay: Carrageenan Paw Assay; type: in vivo, male Wistar rats; details: rats, oral gavage half an hour before carrageenan; paw volume AUC 1-5 hours
Protocol: Fasted (18 hour) male Wistar rats (105-130 g) were weighed and a basal mercury plethysmometer reading was taken of the right hind paw by submerging the paw in the mercury up to the tibiotarsal joint. Subsequently, vehicles, reference items and test articles were administered by oral gavage (10 ml/kg). Half an hour after treatment, 0.1 ml of 2% carrageenan in 0.9% saline was injected into the subplanatar area of the right hind paw. The right paw was measured again with the plethysmometer at 1, 2, 3, 4 and 5 hours after carrageenan administration. Paw volume effects was expressed as the area under the curve for paw volume over time. Activity (inhibition of paw volume) was expressed as the % antiinflammatory activity versus the vehicle control.

Compound	effect on TNF alpha secretion induced by LPS (TNFα)	effect on IL-10 secretion (IL-10)	cytokine modulatory activity [1]	comparative effectiveness of (6) against (5) in DSS colitis [2]	effect on histological scores induced by oral dextran sulphate ([2]; lower dose)	effect on histological scores induced by oral dextran sulphate ([2]; top dose)	protective effects against adjuvant arthritis (adjuvant arthritis)	paw oedema / paw inflammation (adjuvant arthritis)	effect on second relapse of EAE (SJL mouse EAE model)	anti-inflammatory effect against carrageenan induced paw oedema [3]
C[C@@H](NC(C)(C)C)[C@H](O)c1cccc(Cl)c1 (racemic) [Compound 7, (+/−)-(threo)-2-tert-Butylamino-1-(3-chlorophenyl)propan-1-ol]	inhibiting TNF alpha at all doses administrated; also recorded: small inhibitory effect on TNF alpha at the highest dose	–	–	–	–	–	–	–	–	–
CC(NC(C)(C)C)C(=O)c1cccc(Cl)c1 (stereo not shown) [Compound 3, 2-tert-Butylamino-1-(3-chlorophenyl)propan-1-one, reference compound]	small effect	not present	very weak cytokine modulatory activity	–	–	–	–	–	–	–
(+)-(erythro)-2-tert-Butylamino-1-(3-chlorophenyl)propan-1-ol [Compound 6]	inhibited	potentiated II-10 secretion	good cytokine modulatory profiles	marginally more effective	large ameliorating effect	marked effect	protective effects	inhibited paw inflammation at all doses	completely ameliorated the second relapse	dose-dependant anti-inflammatory effect
(+/−)-(erythro)-2-tert-Butylamino-1-(3-chlorophenyl)propan-1-ol [Compound 8]	–	–	cytokine modulatory effects	–	–	–	–	–	–	–
(−)-(erythro)-2-tert-Butylamino-1-(3-chlorophenyl)propan-1-ol [Compound 5]	inhibited TNFα production	no effect on IL-10 levels	good cytokine modulatory profiles	–	–	marked effect	protective effects	reduced paw oedema at the top two doses	–	dose-dependant anti-inflammatory effect
